# According to patent US12606540B2, “Triazolone compound” (MEDSHINE DISCOVERY INC., priority 2020, dated 2026):
# Experiments:
# MDR1 (P-glycoprotein) = assay: Permeability evaluation on MDR1-MDCK II cell line; conditions: dog, MDCK-MDR1, pH 7.4
# [1] = tested on: influenza virus A/Weiss/43 (H1N1); assay: Influenza virus cytopathic effect (CPE) experiment in MDCK cells; format: cell-based; conditions: unidentified influenza virus, H1N1, 120 h, 5 days incubation, CCK8
# [2] = tested on: human peripheral blood mononuclear cells; assay: Proliferation inhibition of peripheral blood mononuclear cells (flow cytometry); format: cell-based; conditions: PBMC, PHA-M 5 μg/mL stimulation, 48 hours
# Method: Flow cytometry was used to detect cell proliferation of human peripheral blood mononuclear cells.
# • Cell complete medium: 445 mL of RPMI1640 cell culture+50 mL of fetal bovine serum+5 mL of double antibody • Buffer 1: 9.9 mL of phosphate buffer+0.1 mL of 10% bovine serum protein • Buffer 2: 10 mL of fetal bovine serum+490 mL of phosphate buffer 3.2 Cell Thawing • 3.2.1 20 mL of cell complete medium was added to a 50 mL of centrifuge tube and pre-heated in a 37° C. water bath for 5 minutes; • 3.2.2 the cell cryotubes were removed from the liquid nitrogen storage tank and placed on dry ice for 5-10 minutes to allow the liquid nitrogen to evaporate fully; • 3.2.3 the cell cryotubes were clamped with forceps and placed in the water bath, and shaken gently to thaw the frozen cells quickly; • 3.2.4 the thawed cells were transferred to the pre-heated cell complete medium with a pipette, centrifuged at 350 g for 5 min, then the supernatant was discarded, and the cells was resuspended by adding 10 mL of phosphate buffer; • 3.2.5 counting by cell counter, and cell viability and cell count were recorded. 3.3 Cell Labeling • 3.3.1 Cell proliferation labeling solution (CellTrace™ Violet, 1:1000 dilution) was prepared • 3.3.2 the above mixture was centrifuged at 350 g for 5 minutes, and the supernatant was discarded, then the cells (20×10^6/mL) were resuspended by adding Buffer 1, and the resuspended cells were gently blown by pipette, and an equal volume of cell proliferation labeling solution (prepared in 3.3.1) was added, and gently blown well by pipette; • 3.3.3 incubating in a 5% CO2, 37° C. cell incubator for 18 minutes; • 3.3.4 the 5-fold volume of cell complete medium was added and leaved at room temperature for 5 minutes to terminate the staining reaction; • 3.3.5 the above mixture was centrifuged at 350 g for 5 minutes, and the supernatant was discarded, then the cells were resuspended by adding 10 mL of cell complete medium, counted by cell counter, and cell viability and cell count were recorded; • 3.3.6 the above mixture was centrifuged at 350 g for 5 minutes, and the supernatant was discarded, then the corresponding volume of cell complete medium was added according to the cell counting results, and the density of the resuspended cells was 2×10^6/mL and was to be used. 3.4 Cell Proliferation Stimulation • 3.4.1 50 μL/well prepared cell suspension (1×10^5 cells/well), 50 μL of 4×PHA-M (the final concentration is 5 μg/mL), 50 μL of 4×test compound, 50 μL of cell complete medium were added to the wells of 96-well cell culture plate, and the corresponding control group was set up; (total volume of the reaction system is 200 μL) • 3.4.2 the cell culture plate was placed and incubated in a 5% CO2, 37° C. cell incubator for 48 hours. 3.5 Cell Proliferation Detection • 3.5.1 the above mixture was centrifuged at 350 g for 5 minutes and the supernatant was transferred to a new cell culture plate and stored at −80° C.; • 3.5.2 200 μL of Buffer 2 was add to the wells of the culture plate, and the above mixture was centrifuged at 350 g and the supernatant was discarded; • 3.5.3 cell dead or living staining solution (7-AAD, 1:100 dilution) was prepared with Buffer 2; • 3.5.4 100 μL/well of dead or living staining solution was added, and gently blown and mixed well by pipette, and stained at room temperature for 10 min; • 3.5.5 cell proliferation was detected by flow cytometry analyzer and analyzed by Flowjo software.
# [3] = tested on: dextran sulfate sodium (DSS) induced colitis model; assay: DSS induced colitis model in mice; format: in vivo, C57BL/6 mice
# Method: • 6.1 Purpose of the study: In order to verify the effect of the test sample on dextran sulfate sodium (DSS) induced colitis model in […] mice. • 6.2 Experimental design for inducing colitis: The mice in the vehicle and administration groups were administered on Day 0 for 1 h, and the mice freely drank water containing 3% DSS until Day 7, after Day 8, the mice were euthanized and their colon was taken for analysis. C57BL/6 mice, 8 weeks of age, 18-20 g, female. Administration was started on Day 0 to Day 7 for both the vehicle and administration groups. • 6.3 Drinking water containing DSS: The appropriate amount of DSS powder was dissolved in autoclaved drinking water and configured as a 3% DSS solution. • 6.4 Administration: Animals of group 1 were given the vehicle, animals of group 2 were given compound 5, and animals of group 3 were given normal drinking water and the vehicle, the vehicle was 5% DMSO/10% Solutol solution/0.2% Tween80/84.8% aqueous solution, with twice a day. 6.5 Measurement 6.5.1 Weight
# Recording frequency was once a day, Days 0 to 8.
# The recording frequency is once a day, Days 0 to 8, and is rated at 4 grades according to the following criteria: • Weight change (0, ≤1%; 1, 1-5%; 2, 6-10%; 3, 11-20%; 4, >20%). • Hematochezia (0, negative; 1, weakly positive for occult blood; 2, positive for occult blood; 3, significant hematochezia; 4, massive hematochezia) • Stool score (0, normal; 1, soft stool; 2, flaccid stool; 3, loose stool; 4, diarrhea)
# The daily disease index is obtained by adding the scores of the above three parts.
# On Day 8, all animals received an overdose of CO2 and were executed by cervical dislocation. The abdominal cavity was cut open and the colon of the mice was taken, the tissue around the colon was removed, and the longitudinal length from the ileocecum to the anus was measured and the whole was photographed. The colon was dissected, the intestinal contents were cleaned, weighed separately, and the stool consistency was recorded.
# The colonic tissue was divided into two longitudinally and one was fixed in 10% neutral paraformaldehyde in the form of “Swiss” rolls.
# The experimental data were expressed as mean±standard error (S.E.M.). Data were adopted by GraphPad Prism and analyzed by ANOVA statistical method. P<0.05 was considered as statistical difference.
# [4] = 5 mpk/BID, compared with the modeling group, p<0.0001
smiles,measurement,setting,value
CCn1c(CO)nn(-c2cc(O[C@@H](C)C(F)(F)F)c(/C(F)=C/c3ncccc3Cl)cc2F)c1=O [Compound 5],"Papp A→B at 150 min, 2 μM",MDR1 (P-glycoprotein),13.3 ×10⁻⁶ cm/s
same,"Papp B→A at 150 min, 2 μM",MDR1 (P-glycoprotein),18.2 ×10⁻⁶ cm/s
same,"Papp at 150 min, 2 μM",MDR1 (P-glycoprotein),> 5.5 ×10⁻⁶ cm/s
same,"efflux ratio at 150 min, 2 μM",MDR1 (P-glycoprotein),1.37
same,EC50,[1],70 nM
same,IC50,[2],0.8 nM
same,Level of inflammatory factor TNF-α in the colonic mucosa,"[3]; 5 mg/kg BID, Day 8, p<0.05 compared with the modeling group",effectively reduces
same,Colon length (colonic shortening) at the experimental endpoint,[3]; [4],significantly improves
same,Colonic density at the experimental endpoint,[3]; [4],significantly improves the inflammation-induced increase of colonic density
same,DAI (Disease Activity Index) score,"[3]; compared to the modeling group, administration for 6 days, Day 8 p<0.0001",significantly improved
same,Animal weight change,"[3]; compared with the modeling group, p<0.01 on Day 8, twice a day",significantly slow down the weight loss of mice
